The values below come from patent US8227245B2, “Multipotent stem cells from peripheral tissues and uses thereof” (McGill University, priority 2000, dated 2012).

Test [1] has as its system skin-derived MSCs. The test is described as follows: Pharmacological agents added to proliferating skin-derived MSCs (morphology, survival). To be noted: plated three days in proliferation medium containing FGF, medium supplemented with agent. The format is cell-based, mouse. From the text:
FIG. 10 is a series of photographs showing the effect of various pharmacological agents on mouse skin-derived MSCs.
We tested the ability of pharmacological agents to alter this phenotype.

Test [2] has as its system skin-derived MSCs. The test is described as follows: Endodermal marker expression of skin-derived MSCs by RT-PCR after plating with nicotinamide. To be noted: cells dissociated and plated in media supplemented with nicotinamide. The format is cell-based. The method, then: Skin-derived MSCs were cultured under standard proliferation conditions in the presence or absence of B-27 supplement. Differentiation was induced by plating cells in the presence of nicotinamide, and the resulting differentiated cells were analyzed by quantitative RT-PCR. […] Although cells proliferated in either the presence or the absence of B27 supplement can be induced to express endodermal markers, cells proliferated in B27 appear to express such markers to a higher degree.
Our recent discovery that MSCs maintain the potential to produce both neural and non-neural cell types has been accompanied by the discovery that non-neural stem cells such as bone marrow-derived stem cells (i.e., stromal cells or mesenchymal stem cells) also have the potential to produce a wide variety of neural and non-neural stem cells (Ferrari et al., Science 279:1528-1530, 1998; Gussoni et al., Nature 401:390-394, 1999; Peterson et al., Science 284:1168-1170, 1999; Pereira et al., Proc. Natl. Acad. Sci. USA 92:4857-4861, 1995; Prockop, Science 276:71-74, 1997; Kessler and Byrne, Annu. Rev. Physiol. 61:219-242, 1999; Pittenger et al., Science 284:143-147). […] After several days of co-culture the skin-derived stem cells were analyzed based on both morphology and on protein expression. […]

Test [3] relates to skin-derived stem cells harvested from human foreskin. The test is described as follows: Culture of human foreskin skin-derived stem cells in presence and absence of LIF. In kind it is cell-based. To be noted: proliferating non-adherent cultures with EGF and FGF2. From the text:
In contrast to human central nervous system derived stem cells, the survival and proliferation of human skin-derived stem cells is not dependent on LIF.
We cultured the cell suspension, as previously described, in non-adherent vessels in the presence of EGF and FGF2. […] The clusters are morphologically indistinguishable from skin-derived stem cells derived from rodent tissue. Skin-derived clusters are loosely compacted, and the cells can be readily dissociated manually without the use of proteases. Such characteristics appear to distinguish skin-derived clusters from CNS-derived neurospheres. […] Furthermore, we have currently passaged and maintained foreskin derived stem cells as proliferating cultures for greater than three months.

The next test deals with skin derived MSCs. The test is described as follows: Neuronal differentiation of skin-derived MSCs plated in 5% serum with added agent, anti-neurofilament immunocytochemistry. The format is cell-based. To be noted: 5% serum plus agent, compared with serum alone. The method, then:
Cells were dissociated and plated in the presence of either 5% FBS, 5% FBS+retinoic acid (RA), or 5% FBS+BMP7. Cells were analyzed immunocytochemically for expression of neurofilament M (NFM).
Skin derived MSCs were obtained and cultured as described in detail above. To induce differentiation, cells were plated in the presence of 5% serum supplemented with either retinoic acid or BMP-7. Neuronal differentiation was analyzed using a polyclonal anti-neurofilament antibody.

Turning to `COc1cccc(-c2cc(=O)c3ccccc3o2)c1N` [PD098059], the “effect on phenotype of proliferating skin-derived MSCs” value in the test with skin-derived MSCs [1] is “caused proliferating cells to flatten and differentiate”.
With `C[S+]([O-])c1ccc(-c2nc(-c3ccncc3)c(-c3ccc(F)cc3)[nH]2)cc1` (centres unmarked) [SB203580], the “effect on phenotype of proliferating skin-derived MSCs” value in the test on skin-derived MSCs [1] is “no observed effect”.
With `NC(=O)c1cccnc1` [nicotinamide], the “expression of endodermal markers (GATA-4, HNF3α, Isl1, AFP, HNF3β, Ngn3, Pdx-1, Insulin)” value in the test on skin-derived MSCs [2] is given as “express markers of endodermal differentiation”.
Take “LIF: cytokine added to culture medium (R&D Systems)”: the “proliferation, differentiation or survival characteristics in presence and absence of LIF” value in test [3] is listed as “no significant differences”.

B1: BMP-7: therapeutic protein (growth factor) added to 5% serum to induce differentiation (protein, UniProt P18075 293-431, looked up)
Bone morphogenetic protein 7: STGSKQRSQNRSKTPKNQEALRMANVAENSSSDQRQACKKHELYVSFRDLGWQDWIIAPEGYAAYYCEGECAFPLNSYMNATNHAIVQTLVHFINPETVPKPCCAPTQLNAISVLYFDDSSNVILKKYRNMVVRACGCH
On to B1, for which the “number and complexity of neurofilament positive cells” value in the test on skin derived MSCs is “enhances the number and complexity of neurofilament positive cells”.
